Three compounds from article PMC8587043, “An Investigation into the Interaction between Double Hydroxide-Based Antioxidant Benzophenone Derivatives and Cyclooxygenase 2” (Molecules, 2021) can be followed below.

The test addresses T1, COX2 (Homo sapiens, UniProt P35354).
T1 construct: purchased Sino Biological Co. (Beijing, China)
T1 sequence (P35354 18-604): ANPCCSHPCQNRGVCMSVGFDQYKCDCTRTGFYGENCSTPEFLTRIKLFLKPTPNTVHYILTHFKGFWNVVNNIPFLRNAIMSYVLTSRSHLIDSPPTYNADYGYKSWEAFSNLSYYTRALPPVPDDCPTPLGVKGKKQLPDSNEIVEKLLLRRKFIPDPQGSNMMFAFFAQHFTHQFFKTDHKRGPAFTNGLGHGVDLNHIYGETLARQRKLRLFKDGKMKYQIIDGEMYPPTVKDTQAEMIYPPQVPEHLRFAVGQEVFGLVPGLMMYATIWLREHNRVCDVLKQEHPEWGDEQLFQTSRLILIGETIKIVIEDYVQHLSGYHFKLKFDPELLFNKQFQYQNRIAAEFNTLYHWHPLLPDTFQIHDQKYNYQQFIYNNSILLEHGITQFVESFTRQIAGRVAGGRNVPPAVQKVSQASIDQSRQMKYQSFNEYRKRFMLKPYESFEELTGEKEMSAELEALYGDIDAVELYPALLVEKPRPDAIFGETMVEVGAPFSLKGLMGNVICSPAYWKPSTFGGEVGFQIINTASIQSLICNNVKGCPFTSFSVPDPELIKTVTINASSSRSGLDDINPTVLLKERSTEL
Briefly: Fluorescence quenching of COX2 (Stern-Volmer, double logarithm, thermodynamic parameters). The class given is binding. As to conditions: for KA relative to the control compound: 298 K and 310 K; for Kq (bimolecular quenching constant): Kq = Ksv/τ0; for Kd: read-out: KA (binding constant) (converted); for ΔH (enthalpy change) / ΔS (entropy change): from KA at 298 K and 310 K. The source says: The emitted fluorescence spectra of COX2 solution (6.0 × 10^−8 mol∙L^−1) without and with an increasing concentration of compounds DB2, SC2 or YB2 (7.5 × 10^−6 mol∙L^−1 to 4.5 × 10^−5 mol∙L^−1) at different temperatures are shown in Figure 4a,b, Figure 4c,d or Figure 4e,f, respectively. […] The quenching constant Kq and Stern–Volmer constant Ksv at different temperatures are usually used to identify the quenching mechanisms, static or dynamic. The former is caused by ground-state complex formation, the latter is diffusion. For the static quenching mechanism, the quenching constant decreases with temperature increase. In this part, we calculated the Kq and Ksv values by using a universally accepted Stern–Volmer equation [38]:(1) F0/F=1+Kqτ0[Q]=1+Ksv[Q] where F0 and F are the protein fluorescence intensities in the absence and the presence of quencher (compounds DB2, SC2 or YB2), respectively. Kq = Ksv/ τ0 . τ0 is the fluorescence lifetime of the fluorophore without the quencher ([…]). [Q] is the concentration of quencher. The Stern-Volmer plots of COX2 fluorescence quenching by compounds DB2, SC2 or YB2 are presented in Figure 5a, Figure 5b or Figure 5c, respectively. According to Table 1, the Ksv and Kq values for all three systems (COX2-DB2, COX2-SC2 and COX2-YB2) decreased with increasing temperature. Therefore, we considered that the quenching was static quenching. To further verify that the system was static quenching, dynamic quenching was assumed first.
For the static quenching, we can use the double logarithm equation to obtain the binding constant (KA) and the number of binding sites per protein (n):(2) lgF0−F/F=lgKA+nlg[Q]
There are four main kinds of non-covalent forces between drugs and proteins. These are electrostatic force, hydrogen bonding, hydrophobic force and van der Waals force. The kind of interaction between compounds DB2, SC2 or YB2 and COX2 can be obtained from thermodynamic parameters, including the free energy change (ΔG), enthalpy change (ΔH) and entropy change (ΔS) of the reaction. The three thermodynamic parameters can be obtained according to the published equations [42, 44]:(3) ΔG=−RTlnK (4) lnK2/K1=ΔH(1/T1−1/T2)×1/R (5) ΔG=ΔH−TΔS
The fluorescence intensity of the system was measured with a 1.0 cm quartz cell. COX2 protein was dissolved in PBS for a final concentration of 6.0 × 10^−8 mol∙L^−1. DB2, SC2 or YB2 stock solutions were prepared in singleton at 1.5 × 10^−3 mol∙L^−1 in PBS containing 0.1% DMSO. 2.0 mL COX2 solution was separately titrated by continuing additions of 10 μL compounds DB2, SC2 or YB2 solution). After incubation at 298 K or 310 K, fluorescence quenching spectra were recorded in the region 325-450 nm at a scan rate of 1200 nm∙min^−1. The local environment of Tyr and Trp residues was quite sensitive at 280 nm, so the excitation wavelength was set at this wavelength. Typically, 280 nm is also used to measure the changes in protein tertiary structure. The slit widths of emission and excitation were both fixed at 10 nm. To observe spectra behaviors of Tyr and Trp groups of COX2, the wavelength interval between the excitation and emission wavelengths (Δλ) was set as 15 nm and 60 nm, respectively. Three-dimensional fluorescence spectroscopy was obtained for an excitation range of 200–300 nm and an emission range of 325–400 nm. Appropriate buffer solutions, determined under the same operation conditions, were used as blanks. Each spectrum was recorded three times.

Like-named read-outs stand apart in the source and are kept apart here.

As to `CCCCc1ccc(C(=O)c2c(Br)cc(O)c(O)c2O)cc1` [DB2], the “KA relative to the control compound” value is given as “approximately an order of magnitude larger”, the “ΔH (enthalpy change)” value is -14.7 ± 1.96 kcal/mol and the “ΔS (entropy change)” value was −120 ± 28.1 J∙K^−1. In addition, under “298 K”, the “Ksv (Stern-Volmer quenching constant)” value is 1.43 ± 0.188 ×10^4 L∙mol^−1, the “n (number of binding sites per protein)” value is listed as 1.10 ± 0.0208, the “ΔG (free energy change)” value is -6.19 ± 0.0669 kcal/mol and the “Kq (bimolecular quenching constant)” value was 1.43 ± 0.188 ×10^12 L∙mol^−1∙S^−1. Also, the Kd (298 K) was 28.2 µM. For the same compound, under “310 K”, the “Ksv (Stern-Volmer quenching constant)” value is recorded as 1.14 ± 0.380 ×10^4 L∙mol^−1, the “n (number of binding sites per protein)” value stood at 1.03 ± 0.0633, the “ΔG (free energy change)” value was -5.88 ± 0.134 kcal/mol and the “Kq (bimolecular quenching constant)” value is on record as 1.14 ± 0.380 ×10^12 L∙mol^−1∙S^−1. In addition, the Kd (310 K) was 73.1 µM.
Take `CC(C)(C)c1ccc(C(=O)c2c(Cl)cc(O)c(O)c2O)cc1` [SC2]: the “KA relative to the control compound” value was “approximately an order of magnitude larger”, the “ΔH (enthalpy change)” value is -1.61 ± 2.18 kcal/mol and the “ΔS (entropy change)” value came to 61.2 ± 31.3 J∙K^−1. Besides, for the setting “298 K”, the “Ksv (Stern-Volmer quenching constant)” value is recorded as 2.31 ± 0.988 ×10^4 L∙mol^−1, the “n (number of binding sites per protein)” value came out at 1.01 ± 0.0469, the “ΔG (free energy change)” value was -5.98 ± 0.0547 kcal/mol and the “Kq (bimolecular quenching constant)” value is on record as 2.31 ± 0.988 ×10^12 L∙mol^−1∙S^−1. For the same compound, for the setting “298 K”, the Kd was 41.7 µM. For the same compound, for the setting “310 K”, the “Ksv (Stern-Volmer quenching constant)” value is reported as 2.07 ± 1.03 ×10^4 L∙mol^−1, the “n (number of binding sites per protein)” value was 1.02 ± 0.0731, the “ΔG (free energy change)” value was -6.14 ± 0.143 kcal/mol and the “Kq (bimolecular quenching constant)” value is 2.07 ± 1.03 ×10^12 L∙mol^−1∙S^−1. The Kd (310 K) is 45.7 µM.
On to `CC(C)Cc1ccc(C(=O)c2c(Br)cc(O)c(O)c2O)cc1` [YB2], for which the “KA relative to the control compound” value is reported as “approximately an order of magnitude larger”, the “ΔH (enthalpy change)” value was -4.95 ± 1.55 kcal/mol and the “ΔS (entropy change)” value was found to be 22.6 ± 21.9 J∙K^−1. Further, for the setting “298 K”, the “Ksv (Stern-Volmer quenching constant)” value is recorded as 3.49 ± 1.69 ×10^4 L∙mol^−1, the “n (number of binding sites per protein)” value came out at 1.07 ± 0.0551, the “ΔG (free energy change)” value was -6.55 ± 0.0241 kcal/mol and the “Kq (bimolecular quenching constant)” value was 3.49 ± 1.69 ×10^12 L∙mol^−1∙S^−1. Moreover, the Kd (298 K) is 15.7 µM. Also, where the note is “310 K”, the “Ksv (Stern-Volmer quenching constant)” value is 2.58 ± 0.562 ×10^4 L∙mol^−1, the “n (number of binding sites per protein)” value came out at 1.07 ± 0.0306, the “ΔG (free energy change)” value was -6.62 ± 0.076 kcal/mol and the “Kq (bimolecular quenching constant)” value is on record as 2.58 ± 0.562 ×10^12 L∙mol^−1∙S^−1. For the same compound, the Kd (310 K) was 21.5 µM.
